Four compounds from patent US20240228481A1, “NOVEL SULFONAMIDE SERIES OF QR2 INHIBITORS TO TACKLE OXIDATIVE STRESS AND COGNITIVE DECLINE” (CARMEL HAIFA UNIVERSITY ECONOMIC CORPORATION LTD., priority 2021, published 2024) can be followed below.

In data set [1] the target is T1, QR2 (Homo sapiens, UniProt P16083).
T1 sequence (P16083 1-231): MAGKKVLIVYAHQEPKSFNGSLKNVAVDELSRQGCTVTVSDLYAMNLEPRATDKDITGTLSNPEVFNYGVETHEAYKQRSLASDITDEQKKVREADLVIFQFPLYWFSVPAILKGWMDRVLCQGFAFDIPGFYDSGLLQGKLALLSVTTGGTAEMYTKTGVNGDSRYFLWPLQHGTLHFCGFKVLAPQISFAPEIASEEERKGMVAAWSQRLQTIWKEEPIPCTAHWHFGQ
The experiment in a line: QR2 enzymatic activity assay (menadione/BNAH), fluorescence readout. More on the design: purchased Sigma-Aldrich. It is filed as biochemical.

The target of data set [2] is T1, QR2. The experiment in a line: QR2 enzymatic activity assay (menadione/BNAH), absorbance readout at 350 nm. It is filed as biochemical. More on the design: purchased Sigma-Aldrich.
Data set [3] deals with T2, QR1 (NQO1) (Homo sapiens, UniProt P15559).
T2 construct: purchased Sigma-Aldrich
The experiment in a line: Selectivity assay with QR1 in place of QR2, fluorescence readout. It is filed as biochemical.

A further data set in a line: in vitro. Conditions: human.
Data set [4] concerns the target T2, QR1 (NQO1). The experiment in a line: Selectivity assay with QR1 in place of QR2, absorbance readout. It is filed as biochemical.
For the next data set, the system named is HEK293T cells. Nature of the data set: XTT cell viability assay. It is filed as cell-based. As to conditions: 3 h incubation, 20 nM-20 μM. The procedure: HEK293FT cells were cultured with penicillin-streptomycin antibiotics in Invitrogen DMEM (Thermo Fisher Scientific) with 10% fetal bovine serum and L-glutamine and grown to 80-90% confluence in 100 mm plates, while being passaged every 2-3 days. For the XTT assay (Biological Industries), cells were then collected, centrifuged, and resuspended in fresh minimum essential medium, and seeded at 50,000 cells/well in 96-well, poly-L-lysine-coated Nunc black, clear flat-bottomed plates (Thermo Fisher Scientific). The next day, the cells were treated with increasing doses of QR2 inhibitors or vehicle for 3 h, and the XTT assay was then carried out as according to the manufacturer's instructions.
A general note: Formazan colour is commonly taken as a measure of viable cells.

A further data set has as its system THLE-2 cells. The experiment in a line: Cell toxicity assay (ATP depletion, CellTiter Glo). As to conditions: 72 h incubation, CellTiter Glo. For orientation: In ATP-based viability assays light output follows the ATP content of the culture.
Data set [5] is described as follows: Cell toxicity assay (ATP depletion, CellTiter Glo). Conditions: human.
Method: (§1) THLE-2 (CRL-2706™) were grown in the BEGM Bullet Kit (CC-3170) from Lonza. Besides the additives contained in the kit, the medium was further supplemented with 5 ng/mL EGF (Sigma), 70 ng/mL phosphoethanolamine (Sigma) and 10% FBS (Biological Industries). The plates for the THLE-2 needed to be pre-coated with a mixture of 0.01 mg/mL fibronectin, 0.05 mg/mL of PureCol™ EZ Gel Solution (Sigma) and 0.01 mg/mL of BSA dissolved in BEBM medium (Lonza). The coating medium was aspirated before seeding.
(§2) THLE-2 cells were exposed to the compounds in a 9-point, 2-fold dilution dose response series with a 100 μM as upper limit, for 72 h. Following the 72 h of exposure to the test compounds, cell viability was determined by measuring the concentration of cellular ATP (CellTiter Glo, Promega). The luminescence signal was measured on a Pherastar FS multi-mode plate reader (BMG Labtech). Each data point was tested in a triplicate.
(§3) First, toxicity was assessed in an ATP depletion assay, using THLE-2 cells following a 72 h exposure to a dose response of each of the tested compounds.
For data set [6], the target named is T1, QR2. The experiment in a line: Cellular thermal shift assay (CETSA) of QR2 in HEK293T cells. It is filed as cell-based. More on the design: endogenous in cells; host or cells: HEK293T. The procedure: The CETSA assay was performed as described (Miettinen and Björklund, 2014) with some modifications. Briefly, HEK293T cells were trypsinized (Biological Industries), washed in PBS (Sigma-Aldrich), and then suspended in PBS containing protease inhibitor cocktail (Roche). The suspended cells were then divided into two Eppendorf tubes and were treated with either: a compound or DMSO (Sigma-Aldrich) for 1 h at 37° C. under shaking. Following treatment, each sample was divided into PCR tubes (100 μL/tube) and subjected to a temperature gradient (ranging from 63 to 80° C.) for 3 minutes. Cell lysates were obtained by 3-cycles of freeze-thaw using liquid nitrogen and a thermal block set to 25° C. Samples were then centrifuged at 15,000 rpm at 4° C. for 20 min and were subsequently analyzed by western blot targeting QR2 (1:100, Santa Cruz; sc-271665). The isothermal dose response fingerprint (ITDRF) experiments were done using a constant temperature of 73° C. Band intensities were normalized to the highest concentration and superoxide dismutase 1 (SOD1) levels (1:200, Santa Cruz; sc-17767). Analysis of the results were performed according to Jafari et al., (2014) using GraphPad Prism software.
To establish direct target engagement, as well as cell membrane permeability, a cellular thermal shift assay (CETSA) was carried out (see methods), using the leading compounds YB-537, YB-800, and YB-808. Following 1 h preincubation with 5 μM of each of the compounds, or vehicle, thermal aggregation curves (Tagg) of QR2 expressed in HEK293T were measured in increasing temperatures. […] Based on the Tagg curves, the inventors selected 73° C. for isothermal dose-response fingerprint (IDTRF) experiments (FIG. 2B).

SMILES strings stand for the structures. “And” between values parts separate entries of the source, which are not always exact repeats. Identical values can stand only once.

T2 sequence (P15559 whole entry): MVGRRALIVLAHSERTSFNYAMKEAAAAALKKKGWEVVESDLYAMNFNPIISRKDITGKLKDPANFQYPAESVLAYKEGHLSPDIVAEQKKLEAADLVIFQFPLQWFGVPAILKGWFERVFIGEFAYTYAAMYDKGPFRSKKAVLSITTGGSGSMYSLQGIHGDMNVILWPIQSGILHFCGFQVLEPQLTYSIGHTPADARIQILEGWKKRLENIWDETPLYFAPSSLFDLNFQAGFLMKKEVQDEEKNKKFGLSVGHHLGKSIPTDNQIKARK
Method for THLE-2 cells: as §1, §2, §3
Method for in vitro: as §1, §2, §3

As usually defined, the IC50 is the concentration that gives 50% inhibition. As to `Cc1cccn2cc(-c3cccc(S(=O)(=O)N(C)C)c3)nc12` [PCM-0213804], the IC50 at QR2 [1] was 0.19 µM; against QR2 [2], 0.02 µM; against QR1 (NQO1) [3], more than 9.99 µM; on QR1 (NQO1) [4], more than 9.99 µM. In the data set “in vitro”, this compound yielded an IC50 at 72 h of more than 100000 nM.
Turning to `Cc1cccn2cc(-c3cccc(S(=O)(=O)NCc4cccnc4)c3)nc12` [PCM-0213814], the half-inhibitory concentration (IC50) against QR2 [1] is 0.02 µM; at QR2 [2] it was 0.02 µM; against QR1 (NQO1) [3], more than 9.99 µM; against QR1 (NQO1) [4] it was 7.18 µM. In addition, the half-inhibitory concentration (IC50) at 72 h in “in vitro” was more than 99000 nM.
As to `Cc1ccc(-c2cn3cccc(C)c3n2)cc1S(=O)(=O)N1CCCCCC1` [PCM-0214338], the half-inhibitory concentration (IC50) at QR2 [1] is 0.02 µM; against QR2 [2], 0.03 µM; against QR1 (NQO1) [3], more than 9.99 µM; on QR1 (NQO1) [4], more than 9.99 µM. The same compound yielded an IC50 at 72 h in “in vitro” of more than 99000 nM.
One may read the EC50 as the midpoint of the concentration-response curve. As for `Cc1ccc(-c2cn3cccc(C)c3n2)cc1S(=O)(=O)N1CCCC1` [YB-808], in the data set with HEK293T cells, the “toxicity in XTT assay” value is on record as “no toxicity”. The “median lethal dose (LD50) in THLE cells” value with THLE-2 cells is 59.7 µM and 59.704 µM. In data set [5], half-maximal inhibition (IC50 at 72 h) required 59700 nM. Moreover, the “thermal stability of QR2 (thermal aggregation curve) versus vehicle” value on QR2 [6] (5 μM, 1 h preincubation) was “shifts of thermal stability”. Besides, the EC50 on QR2 [6] (CETSA at 73° C., read-out: EC50 of QR2 stabilization (isothermal dose-response fingerprint)) was found to be 13 nM. In addition, the half-maximal inhibitory concentration (IC50) at QR2 [1] was 0.01 µM; against QR1 (NQO1) [3], more than 9.99 µM; against QR1 (NQO1) [4], more than 9.99 µM.
